Results: patent publication US7846935B2, “Furo[3,2-B]pyrrol-3-one derivatives and their use as cysteinyl proteinase inhibitors” (Amura Therapeutics Limited, priority 2006, dated 2010)
Like-named read-outs stand apart in the source and are kept apart here.

How the values were obtained:
[1] = biological target: T1, Human recombinant cathepsin K (Homo sapiens, UniProt P43235); experiment: In vitro cathepsin Ki inhibition measurements; assay type: biochemical; details: Table 1, read-out: In vitro Ki (nM) vs Cath K
T1 construct: B. Turk, Josef, Stefan Institute, Ljubljana, Slovenia
T1 sequence (P43235 115-329): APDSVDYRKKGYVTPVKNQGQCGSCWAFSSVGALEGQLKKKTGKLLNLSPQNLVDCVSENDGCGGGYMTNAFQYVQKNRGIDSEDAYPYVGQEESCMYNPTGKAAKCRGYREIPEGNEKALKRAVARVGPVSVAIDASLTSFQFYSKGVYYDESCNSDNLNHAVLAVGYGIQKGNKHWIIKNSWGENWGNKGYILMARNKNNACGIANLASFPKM
Protocol: Stock solutions of substrate or inhibitor were made up to 10 mM in 100% dimethylsulfoxide (DMSO) (Rathburns, Glasgow, U.K.) and diluted as appropriately required. In all cases the DMSO concentration in the assays was maintained at less than 1% (vol./vol.). The equilibrium inhibition constants (Ki^ss) for each compound were measured under steady-state conditions monitoring enzyme activity as a function of inhibitor concentration. The values were calculated on the assumption of pure competitive behaviour (Cornish-Bowden, A. Fundamentals of enzyme kinetics Portland Press; 1995, 93-128). Human recombinant cathepsin K (0.25 nM final; B. Turk, Josef, Stefan Institute, Ljubljana, Slovenia), was routinely assayed in 100 mM sodium acetate; pH 5.5 containing 1 mM EDTA, 10 mM L-cysteine and 1.8 μM Z-Leu-Arg-AMC ([S]=KM).
The apparent inhibition constant (Ki) for each compound was determined on the basis that inhibition was reversible and occurred by a pure-competitive mechanism. The Ki values were calculated, from the dependence of enzyme activity as a function of inhibitor concentration, by direct regression analysis (Prism v 3.02) using Equation 2 (Cornish-Bowden, A., 1995).
In situations where the apparent dissociation constant (Ki^app) approached the enzyme concentrations, the Ki^app values were calculated using a quadratic solution in the form described by Equation 3 (Morrison, J. F. Trends Biochem. Sci., 7, 102-105, 1982; Morrison, J. F. Biochim. Biophys. Acta, 185, 269-286, 1969; Stone, S. R. and Hofsteenge, J. Biochemistry, 25, 4622-4628, 1986).
Curves were fitted by non-linear regression analysis (Prism) using a fixed value for the enzyme concentration. Equation 4 was used to account for the substrate kinetics, where ‘Ki’ is the inhibition constant, ‘[So]’ is the initial substrate concentration and ‘KM^app’ is the apparent macroscopic binding (Michaelis) constant for the substrate (Morrison, 1982).

Plasma incubations = assay type: in vitro ADME; details: 37° C., 25 μM
Protocol: Aliquots were removed at 2 and 60 minutes and quenched with an equal volume of cold acetonitrile. After mixing vigorously, the precipitated protein matter was removed by filtration (Multiscreen Solvinert filter plates, Millipore, Bedford, Mass., USA) and the filtrate analysed by reverse phase HPLC with mass spectrometric detection, using single ion monitoring of the [M+H]^+ species. Metabolic turnover was determined by comparison of peak areas from the ion chromatograms of the parent compound at 2 and 60 minutes and expressed as percent remaining at 1 hour.

[2] = Liver microsomal incubations; assay type: in vitro ADME; details: human liver microsomes, 25 μM, NADPH
Protocol: All liver microsome incubations were carried out in 50 mM potassium phosphate buffer at pH 7.4, with a final microsomal protein concentration of 0.5 mg/mL. […] In brief, compounds were added to the incubation buffer along with the liver microsomes and incubated at 37° C. for 10 minutes. The reaction was then initiated by the addition of NADPH, previously dissolved in incubation buffer, to give a final concentration of 1 mM and re-incubated at 37° C. Aliquots were removed at 2 and 60 minutes and quenched with an equal volume of cold acetonitrile. After mixing vigorously, the precipitated protein matter was removed by filtration (Multiscreen Solvinert filter plates, Millipore, Bedford, Mass., USA) and the filtrate analysed by reverse phase HPLC with mass spectrometric detection, using single ion monitoring of the [M+H]^+ species. Metabolic turnover was determined by comparison of peak areas from the ion chromatograms of the parent compound at 2 and 60 minutes and expressed as percent remaining at 1 hour.

human osteoclasts [3] = experiment: Human osteoclast resorption assay; assay type: cell-based
Protocol: Bone resorption was studied using a model where human osteoclast precursor cells were cultured on bovine bone slices for 9 days and allowed to differentiate into bone-resorbing osteoclasts. The formed mature osteoclasts were then allowed to resorb bone. The assay was performed by Pharmatest Services Ltd, Itainen Pitkakatu 4C, Turku, Finland. After the culture period, bone collagen degradation products were quantified from the culture medium as an index of bone resorption. Inhibitor compounds were added into the cell cultures after the differentiation period and their effects on the resorbing activity of mature osteoclasts were determined. The studies included a baseline group without added compounds and a positive control group where a potent cathepsin K inhibitor E-64 was added.
Human peripheral blood monocytes were suspended to culture medium and allowed to attach to bovine bone slices. The bone slices were transferred into 96-well tissue culture plates containing culture medium with appropriate amounts of important growth factors favouring osteoclast differentiation, including M-CSF, RANK-ligand and TGF-β. The cells were incubated in a CO2 incubator in humidified atmosphere of 95% air and 5% carbon dioxide at 37° C. At day 7 when osteoclast differentiation was complete, the culture medium was replaced with culture medium containing conditions favouring osteoclast activity. The cell culture was continued for an additional 2 days, during which the formed mature osteoclasts were allowed to resorb bone in the presence of vehicle, control inhibitor (E64) or test compounds. At the end of the culture, bone collagen degradation products released into the culture medium were determined using a commercially available ELISA method (CrossLaps® for culture, Nordic Bioscience, Herlev, Denmark) as an index of bone resorption (see Bagger, Y. Z. et al, J. Bone. Miner. Res. 14 (suppl. 1), S370).

LogD determinations = assay type: physicochemical; details: 1-octanol/PBS; PBS pH 7.4/1-octanol, ion-count method
Protocol: LogD(PBS) determinations were performed in 96 well microtitre plates using a miniaturised “shake-flask” method. […] The plates were then capped and mixed vigorously for 1 hour on a microtitre plate shaker, after which they were left to stand, allowing the PBS and octanol phases to separate. The PBS layer was analysed by reverse phase HPLC with mass spectrometric detection, using single ion monitoring of the [M+H]^+ species.
Where AUCstd and AUCpbs are the peak areas from the standard and test ion chromatograms respectively.

rat osteoclasts = experiment: Rat osteoclast resorption assay; assay type: cell-based
Protocol: Bone resorption was studied using a model where mature osteoclasts derived from rat bone were cultured on bovine bone slices for 3 days and allowed to resorb bone in the presence of inhibitor, positive control (E-64) or vehicle. More specifically, tibia, femori and humeri were removed from 1 day old rat pups. The endosteal surfaces of the bones were scraped with a scapelto release osteoclasts into the culture medium and the osteoclasts were allowed to attach to bovine bone slices. After the culture period, bone collagen degradation products were quantified from the culture medium as an index of bone resorption. The assay was performed by Pharmatest Services Ltd, Itäinen Pitkakatu 4C, Turku, Finland.

human osteoclasts [4] = details: human osteoclast, literature value; cited from earlier work
[5] = human osteoclast bone resorption, read-out: Cell-based % Inh. @ 1 μM Human
[6] = human osteoclast, read-out: inhibition of human osteoclast activity
[7] = 1 μM, rat osteoclast bone resorption, read-out: Cell-based % Inh. @ 1 μM Rat
[8] = rat osteoclast, 1 μM per table 1, read-out: rat osteoclast data (inhibition)

SMILES | Ki [1] | Human Plasma Stability % rem. @ 1 h (Plasma incubations) | HLM % rem. @ 1 h [2] | inhibition at 1 µM (human osteoclasts [3]; [5]) | inhibition at 1 µM (human osteoclasts [3]; [6]) | logD (LogD determinations) | inhibition at 1 µM (rat osteoclasts; [7]) | inhibition at 1 µM (rat osteoclasts; [8]) | Cell-based % Inh. @ 1 μM Human (Lit.) (human osteoclasts [4])
CCCN1CCN(c2ccc(C(=O)N[C@@H](CC(C)C)C(=O)N3CC[C@H]4OCC(=O)[C@H]43)cc2)CC1 [EXAMPLE 3, N—((S)-4-methyl-1-oxo-1-((3aS,6aR)-3-oxo-dihydro-2H-furo[3,2-b]pyrrol-4(5H,6H,6aH)-yl)pentan-2-yl)-4-(4-propylpiperazin-1-yl)benzamide] | 18 nM | 89% | 83% | 73% | 73 to 82% | 1.66 | 65% | 65% | 
CC(C)C[C@H](NC(=O)c1ccc(C2CCN(C3CC3)CC2)cc1)C(=O)N1CC[C@H]2OCC(=O)[C@H]21 [compound 9, 4-(1-cyclopropylpiperidin-4-yl)-N—((S)-4-methyl-1-oxo-1-((3aS,6aR)-3-oxodihydro-2H-furo[3,2-b]pyrrol-4(5H,6H,6aH)-yl)pentan-2-yl)benzamide] | 8 nM | 93% | 82% |  |  | 1.99 |  |  | 
CC(C)C[C@H](NC(=O)c1ccc(N2CCN(C)CC2)cc1)C(=O)N1CC[C@H]2OCC(=O)[C@H]21 [EXAMPLE 1, 4-(4-methylpiperazin-1-yl)-N—((S)-4-methyl-1-oxo-1-((3aS,6aR)-3-oxodihydro-2H-furo[3,2-b]pyrrol-4(5H,6H,6aH)-yl)pentan-2-yl)benzamide, reference compound] |  | 95% | 95% | 55% |  |  |  |  | 
CC(C)C[C@H](NC(=O)c1ccc(C(C)(C)C)cc1)C(=O)N1CC[C@H]2OCC(=O)[C@H]21 [prior art compound 23, reference compound] |  | 75% | 70% |  |  |  |  |  | Lit. 60%
CC(C)C[C@H](NC(=O)c1ccc(C2CCN(C3CCC3)CC2)cc1)C(=O)N1CC[C@H]2OCC(=O)[C@H]21 [compound 10, 4-(1-cyclobutylpiperidin-4-yl)-N—((S)-4-methyl-1-oxo-1-((3aS,6aR)-3-oxodihydro-2H-furo[3,2-b]pyrrol-4(5H,6H,6aH)-yl)pentan-2-yl)benzamide] | 5 nM | 90% | 83% |  |  | 0.95 |  |  | 
CC(C)C[C@H](NC(=O)c1ccc(N2CCN(C(C)C)CC2)cc1)C(=O)N1CC[C@H]2OCC(=O)[C@H]21 [EXAMPLE 4, 4-(4-isopropylpiperazin-1-yl)-N—((S)-4-methyl-1-oxo-1-((3aS,6aR)-3-oxodihydro-2H-furo[3,2-b]pyrrol-4(5H,6H,6aH)-yl)pentan-2-yl)benzamide] | 19 nM | 91% | 88% | 74% | 73 to 82% | 1.21 | 25% | 25% | 
COCCN1CCC(c2ccc(C(=O)N[C@@H](CC(C)C)C(=O)N3CC[C@H]4OCC(=O)[C@H]43)cc2)CC1 [EXAMPLE 8, 4-(1-(2-methoxyethyl)piperidin-4-yl)-N—((S)-4-methyl-1-oxo-1-((3aS,6aR)-3-oxodihydro-2H-furo[3,2-b]pyrrol-4(5H,6H,6aH)-yl)pentan-2-yl)benzamide] | 36 nM | 98% | 88% | 23% | 23% | 0.61 | 52% | 52% | 
COCCN1CCN(c2ccc(C(=O)N[C@@H](CC(C)C)C(=O)N3CC[C@H]4OCC(=O)[C@H]43)cc2)CC1 [EXAMPLE 5, 4-(4-(2-methoxyethyl)piperazin-1-yl)-N—((S)-4-methyl-1-oxo-1-((3aS,6aR)-3-oxodihydro-2H-furo[3,2-b]pyrrol-4(5H,6H,6aH)-yl)pentan-2-yl)benzamide] | 29 nM | 98% | 90% | 57% | 57% | 0.9 | 65% | 65% | 
CC(C)C[C@H](NC(=O)c1ccc(N2CCN(C3CC3)CC2)cc1)C(=O)N1CC[C@H]2OCC(=O)[C@H]21 [EXAMPLE 6, 4-(4-cyclopropylpiperazin-1-yl)-N—((S)-4-methyl-1-oxo-1-((3aS,6aR)-3-oxodihydro-2H-furo[3,2-b]pyrrol-4(5H,6H,6aH)-yl)pentan-2-yl)benzamide] | 4 nM | 93% | 83% | 74% | 73 to 82% | 1.88 | 22% | 22% | 
CCN1CCN(c2ccc(C(=O)N[C@@H](CC(C)C)C(=O)N3CC[C@H]4OCC(=O)[C@H]43)cc2)CC1 [EXAMPLE 2, 4-(4-ethylpiperazin-1-yl)-N—((S)-4-methyl-1-oxo-1-((3aS,6aR)-3-oxodihydro-2H-furo[3,2-b]pyrrol-4(5H,6H,6aH)-yl)pentan-2-yl)benzamide] | 15 nM | 93% | 88% | 58% | 58% | 0.74 | 40% |  | 
CC(C)C[C@H](NC(=O)c1ccc(N2CCN(C3CCC3)CC2)cc1)C(=O)N1CC[C@H]2OCC(=O)[C@H]21 [EXAMPLE 7, 4-(1-cyclobutylpiperazin-4-yl)-N—((S)-4-methyl-1-oxo-1-((3aS,6aR)-3-oxodihydro-2H-furo[3,2-b]pyrrol-4(5H,6H,6aH)-yl)pentan-2-yl)benzamide] | 3 nM | 92% | 81% | 82% | 73 to 82% | 1.88 | 40% | 40% | 
